Measured values taken from ChEMBL document CHEMBL1201862, “PubChem BioAssay data set” (2004).
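Briefly, cells in 96-well plates were exposed to five compound concentrations for 48 h, and endpoints were estimated by linear interpolation. GI50 is the concentration that inhibits growth by half.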 The source made the active and inactive calls. Rule as the data show it: active = GI50 up to about 1.1 µM and inactive = higher.

Assays:
Experiment in all cases: inhibition of tumour cell growth, NCI panel, 48 h
[1] = test system: SF-539
[2] = test system: 786-0
[3] = test system: SK-MEL-5
[4] = test system: LOX IMVI
[5] = test system: SN12C
[6] = test system: COLO 205
[7] = test system: SF-295
[8] = test system: NCI-H226
[9] = test system: OVCAR-5
[10] = test system: Malme-3M
[11] = test system: OVCAR-4
[12] = test system: UACC-257
[13] = test system: HOP-62
[14] = test system: SK-MEL-28
[15] = test system: MDA-MB-231
[16] = test system: SNB-19
[17] = test system: UACC-62
[18] = test system: A549
[19] = test system: CCRF-CEM
[20] = test system: HL-60

Measured: GI50

N#CC(C(=O)c1ccccc1F)c1nc2cc(C(F)(F)F)ccc2s1 (centres undefined)
inactive: [1] 33.4 µM | [2] 19.6 µM | [3] 20.8 µM | [4] 17.6 µM | [5] 23.1 µM | [6] 20.9 µM | [7] 14.3 µM | [8] 33.2 µM | [9] 21.2 µM | [10] 19.6 µM | [11] 31.3 µM | [12] 27.4 µM | [13] 18.7 µM | [14] 29.4 µM | [15] 31 µM

COC([C@@H](OC(=O)c1ccccc1)[C@H](OC(=O)c1ccccc1)C(O)COC(=O)c1ccccc1)n1cc(C)c(=O)[nH]c1=O (some centres undefined)
inactive: [16] 22.2 µM | [2] 26.2 µM | [17] 17.3 µM | [18] 16.4 µM | [3] 11.7 µM | [4] 15.1 µM | [5] 43.2 µM | [6] 22 µM | [7] 24.4 µM | [8] 20.8 µM | [9] 19.1 µM | [10] 23.6 µM | [11] 7.83 µM | [12] 34.2 µM | [13] 35.3 µM | [14] 39.3 µM | [15] 40.6 µM

COC1=N[C@H](C(C)C)C(OC)=N[C@H]1Cc1ccc(C[C@@H]2N=C(OC)[C@@H](C(C)C)N=C2OC)s1
inactive: [1] > 100 µM | [16] 54.5 µM | [2] 45.6 µM | [17] 45.1 µM | [18] 29 µM | [3] 20.8 µM | [4] 48.6 µM | [5] 43.3 µM | [19] 19.5 µM | [6] 22.1 µM | [7] 38.2 µM | [9] 17.5 µM | [10] 22.6 µM | [11] 37.7 µM | [12] 26.3 µM | [13] 54.8 µM | [14] 34.7 µM | [15] 27.6 µM

CN(C)C1(N(C)C)Oc2c(c(=O)n(C)c(=O)n2C)C(c2ccc(C(F)(F)F)cc2)C1(F)F (centres undefined)
inactive: [16] > 100 µM | [2] > 100 µM | [17] > 100 µM | [18] > 100 µM | [3] > 100 µM | [4] > 100 µM | [19] > 100 µM | [6] > 100 µM | [7] > 100 µM | [8] > 100 µM | [9] > 100 µM | [11] > 100 µM | [12] > 100 µM | [13] > 100 µM | [14] > 100 µM | [15] > 100 µM

Cc1ccc2c(c1)NC(c1ccc(C(=O)O)cc1)c1cccn1-2 (centres undefined)
inactive: [1] > 100 µM | [16] 22.4 µM | [2] 19.3 µM | [17] 42.8 µM | [18] 36.3 µM | [3] > 100 µM | [4] > 100 µM | [5] 69.7 µM | [19] > 100 µM | [6] > 100 µM | [7] 37.8 µM | [8] > 100 µM | [9] > 100 µM | [11] 17.2 µM | [12] 80.4 µM | [13] 24 µM | [14] > 100 µM | [15] 37.2 µM

CCc1oc2ccc(OC)c3c2c1C=CC=C3
inactive: [1] > 100 µM | [16] > 100 µM | [2] > 100 µM | [17] > 100 µM | [18] > 100 µM | [20] 87.7 µM | [3] > 100 µM | [4] > 100 µM | [5] > 100 µM | [19] > 100 µM | [6] > 100 µM | [7] > 100 µM | [8] > 100 µM | [9] > 100 µM | [10] > 100 µM | [11] > 100 µM | [12] > 100 µM | [13] > 100 µM | [14] > 100 µM

C=CCNC(=O)N(CCCCC(NC(C)=O)C(=O)NCc1ccccc1)Cc1ccccc1 (centres undefined)
inactive: [1] > 100 µM | [16] > 100 µM | [2] > 100 µM | [17] > 100 µM | [18] > 100 µM | [20] > 100 µM | [3] > 100 µM | [4] > 100 µM | [5] > 100 µM | [19] > 100 µM | [6] > 100 µM | [7] > 100 µM | [8] > 100 µM | [9] > 100 µM | [10] > 100 µM | [11] > 100 µM | [12] > 100 µM | [13] > 100 µM | [14] > 100 µM

COc1cccc([C@@H]2C/C(=N\NC(=O)C(=O)N[C@@H](C)c3ccccc3)c3cc4c(cc3N2)OCO4)c1
inactive: [1] 23.8 µM | [16] 35 µM | [2] 82 µM | [17] 17.1 µM | [18] 43.9 µM | [3] 3.06 µM | [4] 80 µM | [5] 42 µM | [19] 28.1 µM | [6] 25.5 µM | [7] 36.6 µM | [8] 10.5 µM | [9] > 100 µM | [11] 74 µM | [12] 15.8 µM | [13] 69.5 µM | [14] > 100 µM | [15] 67.5 µM

O=C1c2scc(-c3ccc(F)cc3)c2-n2cccc21
inactive: [16] 19.8 µM | [2] 15.7 µM | [17] 18.6 µM | [18] 56.5 µM | [3] 22.4 µM | [4] 24.6 µM | [5] 20.6 µM | [19] 28.6 µM | [6] 44.9 µM | [7] 26.2 µM | [8] 28.1 µM | [9] > 100 µM | [10] 52.1 µM | [11] 39.4 µM | [12] 71 µM | [13] 15.6 µM | [14] 29.2 µM | [15] 24.7 µM

Cc1cc(C)c(C#N)c(SC(=S)NC(=O)c2ccccc2)n1
inactive: [1] > 100 µM | [16] > 100 µM | [2] > 100 µM | [17] > 100 µM | [18] > 100 µM | [3] > 100 µM | [5] > 100 µM | [19] > 100 µM | [6] > 100 µM | [8] > 100 µM | [9] > 100 µM | [10] > 100 µM | [11] > 100 µM | [12] > 100 µM | [13] > 100 µM | [14] > 100 µM | [15] > 100 µM

NC(=S)N/N=C(/CC(=O)c1ccccc1)C(=O)Nc1ccc(Cl)c(Cl)c1
inactive: [1] > 100 µM | [16] 91.2 µM | [2] 59.7 µM | [17] 27.4 µM | [18] > 100 µM | [20] 23.3 µM | [3] 41.7 µM | [4] 74.3 µM | [5] > 100 µM | [19] 28.6 µM | [6] > 100 µM | [7] 61.9 µM | [8] > 100 µM | [9] > 100 µM | [10] > 100 µM | [11] 57.3 µM | [12] > 100 µM | [13] 60.4 µM | [14] > 100 µM
